Laboratory results taken from US20060217390A1, “Cycloalkl, aryl and heteroaryl amino isothiazoles for the treatment of Hepatitis C virus” (priority 2005, published 2006).

These compounds were tested on HCV Con1 subgenomic replicon in Huh-7 cells (NK/luc-ubi-neo) (assay: HCV replicon assay (luciferase reporter)). Conditions: anti-HCV activity, class symbols; read-out: Range of EC50 in HCV replicon assay.
Format: cell-based
Method: A human hepatoma cell line (Huh-7) containing replicating HCV Con1 subgenomic replicon with a luciferase reporter gene (luc-ubi-neo) was used to evaluate anti-HCV activity of the compounds. In this assay, the level of luciferase signal correlates directly with the viral RNA replication. The HCV replicon-reporter cell line (NK/luc-ubi-neo) was cultured in DMEM medium supplemented with 10% fetal bovine serum and 0.5 mg/ml Geneticin (G418). Cells were maintained in a subconfluent state to ensure high levels of HCV replicon RNA synthesis.
To evaluate the antiviral activity of compounds, serial dilutions were prepared with concentrations ranging from 0.14 to 300 μM. Diluted compounds were transferred to a 96-well plate followed by the addition of replicon cells (6000 cells per well). Cells were incubated with the compounds for 48 hours after which luciferase activity was measured.
N#Cc1c(Nc2ccc(I)cc2)s[nH]c1=O showed an EC50 of 1 to 10 µM. With N#Cc1c(Nc2ccc(C(=O)c3ccccc3)cc2)s[nH]c1=O the EC50 was 10 to 50 µM. For N#Cc1c(Nc2ccc(Cl)c(Cl)c2)s[nH]c1=O, the EC50 was less than 1 µM. COc1ccccc1Nc1s[nH]c(=O)c1C#N gave an EC50 of 10 to 50 µM. N#Cc1c(NCCc2ccc(O)cc2)s[nH]c1=O gave an EC50 greater than 50 µM. Work on N#Cc1c(Nc2ccccc2F)s[nH]c1=O yielded an EC50 of 10 to 50 µM. N#Cc1c(Nc2ccc(I)c(Cl)c2)s[nH]c1=O was tested, and the EC50 was less than 1 µM. With COC(=O)c1cccc(Nc2s[nH]c(=O)c2C#N)c1 the EC50 was greater than 50 µM. CC(C)c1cccc(C(C)C)c1Nc1s[nH]c(=O)c1C#N gave an EC50 of 10 to 50 µM. N#Cc1c(Nc2cc(Cl)c(Cl)c(Cl)c2)s[nH]c1=O gave an EC50 of less than 1 µM. In the case of N#Cc1c(Nc2ccc(Cl)cn2)s[nH]c1=O, the EC50 is reported as 10 to 50 µM. N#Cc1c(NC2CCc3ccccc32)s[nH]c1=O (stereo not shown) gave an EC50 of 1 to 10 µM. COc1ccc(Nc2s[nH]c(=O)c2C#N)cc1 was tested, and the EC50 was 10 to 50 µM. Compound N#Cc1c(Nc2ccc(C(F)(F)F)cn2)s[nH]c1=O has an EC50 of 10 to 50 µM. In the case of N#Cc1c(Nc2cccc(Br)n2)s[nH]c1=O, the EC50 is reported as 10 to 50 µM. Work on CN(C)c1ccc2ccccc2c1Nc1s[nH]c(=O)c1C#N yielded an EC50 greater than 50 µM. With N#Cc1c(Nc2cc(C(F)(F)F)cc(C(F)(F)F)c2)s[nH]c1=O the EC50 was 1 to 10 µM. Work on CCCC1CCC(c2ccc(Nc3s[nH]c(=O)c3C#N)cc2)CC1 (stereo not shown) yielded an EC50 of 1 to 10 µM. In the case of COC(=O)c1ccccc1Nc1s[nH]c(=O)c1C#N, the EC50 is reported as greater than 50 µM. In the case of N#Cc1c(Nc2cccc(Cl)c2Cl)s[nH]c1=O, the EC50 is reported as greater than 50 µM. Work on N#Cc1c(Nc2ccc(Br)c(C(F)(F)F)c2)s[nH]c1=O yielded an EC50 of 1 to 10 µM. N#Cc1c(Nc2ccc(C(=O)O)cc2)s[nH]c1=O was tested, and the EC50 was greater than 50 µM. N#Cc1c(Nc2ccc(Cl)cc2Cl)s[nH]c1=O was tested, and the EC50 was 10 to 50 µM. Work on N#Cc1c(Nc2ccc(F)cc2)s[nH]c1=O yielded an EC50 of 10 to 50 µM. For N#Cc1c(NCCc2cccs2)s[nH]c1=O, the EC50 was greater than 50 µM. For N#Cc1c(Nc2cc(Br)cc(C(F)(F)F)c2)s[nH]c1=O, the EC50 was less than 1 µM.

These compounds were tested on Huh-7 cells (assay: not given). Conditions: not given.
Description: A Huh-7 cell line carrying a luciferase reporter gene (driven by a HIV LTR promoter) stably integrated into the chromosome was used to analyze the cytotoxic effect of the selected compounds. This cell line (LTR-luc) was maintained in DMEM medium with 10% FBS. Design of the cytotoxicity assay was similar to that of the HCV replicon assay.
With N#Cc1c(Nc2ccc(I)cc2)s[nH]c1=O the CC50 was greater than 50 µM. N#Cc1c(Nc2ccc(Cl)c(Cl)c2)s[nH]c1=O showed a CC50 greater than 50 µM. For COc1ccccc1Nc1s[nH]c(=O)c1C#N, the CC50 was greater than 50 µM. Compound N#Cc1c(NCCc2ccc(O)cc2)s[nH]c1=O has a CC50 greater than 50 µM. For N#Cc1c(Nc2ccccc2F)s[nH]c1=O, the CC50 was greater than 50 µM. Work on COC(=O)c1cccc(Nc2s[nH]c(=O)c2C#N)c1 yielded a CC50 greater than 50 µM. Compound CC(C)c1cccc(C(C)C)c1Nc1s[nH]c(=O)c1C#N has a CC50 greater than 50 µM. In the case of N#Cc1c(Nc2cc(Cl)c(Cl)c(Cl)c2)s[nH]c1=O, the CC50 is reported as less than 50 µM. N#Cc1c(NC2CCc3ccccc32)s[nH]c1=O (stereo not shown) showed a CC50 greater than 50 µM. With COc1ccc(Nc2s[nH]c(=O)c2C#N)cc1 the CC50 was greater than 50 µM. With N#Cc1c(Nc2ccc(C(F)(F)F)cn2)s[nH]c1=O the CC50 was greater than 50 µM. COC(=O)c1ccccc1Nc1s[nH]c(=O)c1C#N was tested, and the CC50 was greater than 50 µM. With N#Cc1c(Nc2cccc(Cl)c2Cl)s[nH]c1=O the CC50 was greater than 50 µM. Compound N#Cc1c(Nc2ccc(C(=O)O)cc2)s[nH]c1=O has a CC50 greater than 50 µM. Work on N#Cc1c(Nc2ccc(Cl)cc2Cl)s[nH]c1=O yielded a CC50 greater than 50 µM. Compound N#Cc1c(Nc2ccc(F)cc2)s[nH]c1=O has a CC50 greater than 50 µM. N#Cc1c(NCCc2cccs2)s[nH]c1=O gave a CC50 greater than 50 µM.

Same assay, conditions: read-out: Range of CC50 in cytotoxicity assay; cytotoxicity, class symbols
In the case of N#Cc1c(Nc2ccc(C(=O)c3ccccc3)cc2)s[nH]c1=O, the CC50 is reported as greater than 50 µM. For N#Cc1c(Nc2ccc(I)c(Cl)c2)s[nH]c1=O, the CC50 was greater than 50 µM. With N#Cc1c(Nc2ccc(Cl)cn2)s[nH]c1=O the CC50 was greater than 50 µM. N#Cc1c(Nc2cccc(Br)n2)s[nH]c1=O gave a CC50 greater than 50 µM. With CN(C)c1ccc2ccccc2c1Nc1s[nH]c(=O)c1C#N the CC50 was greater than 50 µM. Work on N#Cc1c(Nc2cc(C(F)(F)F)cc(C(F)(F)F)c2)s[nH]c1=O yielded a CC50 greater than 50 µM. Work on CCCC1CCC(c2ccc(Nc3s[nH]c(=O)c3C#N)cc2)CC1 (stereo not shown) yielded a CC50 of less than 50 µM. In the case of N#Cc1c(Nc2ccc(Br)c(C(F)(F)F)c2)s[nH]c1=O, the CC50 is reported as greater than 50 µM. Compound N#Cc1c(Nc2cc(Br)cc(C(F)(F)F)c2)s[nH]c1=O has a CC50 greater than 50 µM.
